Test results from patent publication US20240245702A1, “Inhibition of Lysine Demethylase 1 (Lsd1) Induces Differentiation of Hair Cells” (Massachusetts Eye and Ear Infirmary, priority 2018, published 2024).

Key:
Assay type in all cases: cell-based, mouse
[1] = system: Myo7a; test: qRT-PCR of Myo7a in differentiated LCP organoids; conditions: D10, pargyline-treated cells relative to standard treatment, p<0.05
Method: (§1) Differentiation of LCPs into a hair cell lineage. […] To analyze the effect of the Lsd1 inhibitors, the LCPs were treated with the small molecules combined with a differentiation drug cocktail, pargyline and CHIR99021 or CHIR99021 at 1, 2, 4, and 10 days (McLean et al., 2017).
(§2) RNA extraction and PCR. For the LCPs, the organoids were treated with Cell Recovery Solution for at 1 hour and TrypleE for 20 minutes, then frozen in RLT buffer. RNA extractions were performed using the RNeasy Micro Kit (QIAGEN) and cDNA generated using ImProm-II Reverse Transcription Kit (Promega). TaqMan Real-Time PCR was performed in triplicates using the TaqMan Gene Expression Master Mix (ThermoFisher Scientific) on a StepOne Real-Time PCR machine (ThermoFisher Scientific). Ordinary One-way Anova was used to assess statistical significance. A minimum of three biologically distinct samples were analyzed for each condition.
(§3) We next tested the effect of Lsd1 inhibition on hair cell differentiation. In this assay, after the cells were expanded into organoids during the initial proliferation phase, differentiation was initiated using the combination of CHIR99021 and LY411575 and allowed to progress for 10 days (DO to D10). Organoids were monitored for the development of hair cells using FACS and qRT-PCR. […] Conversely, Myo7a expression increases throughout development and is a key marker of mature hair cells. […]

[2] = system: Lgr5-expressing cochlear progenitors cells (LCPs); test: Proliferation of Lgr5+ cochlear progenitors (LCPs) in organoid culture; conditions: first 10 days in culture, Lgr5-nGFP mice cells, combined with CHIR99021
Method: Isolation and expansion of inner ear Lgr5+ cells. A recently published protocol was used to derive organoids from inner ear stem cells [also referred to as Lgr5+ cochlear progenitors (LCPs) (McLean et al., 2017). Briefly, the organ of Corti was dissected from neonatal mice (postnatal days 2-5) in Hank's balanced salt solution and treated with Cell Recovery Solution (Corning) for 1 hour. The cochlear epithelium was then peeled from the underlying mesenchyme, collected and treated with TrypleE for 20 minutes at 37° C. The single cells were mechanically triturated, filtered ([…] cell strainer) and suspended in a Matrigel (Corning) dome for 3D culture. The cells were seeded in a 24-well plate, specifically at one cochlea per well of a 24-well plate.
For the drug screening experiments, the expanded cells were passaged into a 96 well plate to test varying drug combinations. All experiments were done in triplicate at minimum. Atoh1-nGFP cells were quantified after 10 days in culture. The cell colonies were incubated in Cell Recovery Solution for 1 hour and dissociated into single cells using TrypleE. The total cell number and percentage of GFP+ cells were quantified using fluorescence activated cell sorting (FACS).
We screened a collection of Lsd1 inhibitors over the first 10 days in culture (FIGS. 9A and 9B) to examine their effect on proliferation of LCPs (FIGS. 9C and 9D). […]

[3] = system: LCPs; test: RNA sequencing of LCP organoids with and without pargyline
Method: RNA sequencing. After RNA extractions were performed using the RNeasy Micro Kit (QIAGEN), the library preparation and RNA-sequencing was performed at the Dana Farber Cancer Institute Molecular Biology Core Facility. In brief, cDNA was synthesized from 2.5 ng of RNA using SMARTer V4 Kit (Clontech). Following fragmentation using M220 Focused-Ultrasonicator (Covaris), 2 ng of sheared cDNA was taken for library preparation using ThruPLEX DNA-seq kit (Rubicon Genomics). NextSeq500 Single-End 75 bp (SE75) Sequencing (Illumina) was performed on all 12 samples in one lane after they were indexed and pooled in equimolar to ensure 20-30 million reads per sample. Reads were aligned to mm10 augmented with Ensembl gene build 75 with STAR v2.5.2b (Dobin et al., 2013). Reads and alignments were assessed for quality using FastQC. Differential expression was evaluated using DESeq2. Genes were called differentially expressed when the absolute value of the fold change was >1.25 and FDR, was smaller than 0.05. Subsequent pathway analysis was performed using Ingenuity Pathway Analysis software (Qiagen).
The effect of pargyline on the differentiation of hair cells could be broad and we therefore evaluated its effect on the gene expression patterns of Lsd1 inhibitor-treated and untreated samples. The samples analyzed included the undifferentiated organoids following expansion (DO) and the differentiated organoids following 10 days of differentiation, with and without pargyline treatment (D10). […] In addition, 90% of the genes aligned to the genome and over 22,000 genes were detected in each sample. […] The times here refer to the beginning and end of differentiation and the finding was that most of the difference between samples was due to the 10 days of differentiation. Consistently, the principle component analysis (PCA) clustered the samples by the time of differentiation (responsible for 62% of the variation between samples) and the treatment (20% of the variation: FIG. 10B). Lsd1 inhibition in the presence of CHIR99021 altered gene expression and caused the pargyline-treated samples to cluster separately from those treated with CHIR99021 alone.
Differential expression analysis of the samples was also performed using DESeq2 (Love et al., 2014). […] We further compared the gene expression profiles of the samples. Compared to the undifferentiated (DO), approximately […]) and 3365 genes were differentially expressed in the D10 or D10+pargyline samples, respectively. The addition of pargyline compared to the untreated samples altered the expression of approximately 474 genes (padj<0.05, fold change >1.25).
Gene set enrichment analysis (GSEA) using gene sets associated with biological process gene ontology terms (Subramanian et al., 2005) was next performed to gain insight into the relevant pathways altered in this dataset. The analysis accounts for coordinated differential expression over pre-defined gene sets, instead of changes in individual genes. Pathways related to the cell cycle and proliferation were the most enriched after pargyline treatment, particularly the p53 and PI3/AKT, MAPK and RAS pathways (−0.503, −0.33). although these cells were in the differentiation phase. […] Here we present the top 15 differentially expressed hair cell receptor genes. […] Collectively, these findings corroborate increasing hair cell differentiation with Lsd1 inhibition.

[4] = system: Atoh1; test: qRT-PCR of Atoh1 in differentiated LCP organoids; conditions: D10, pargyline-treated cells relative to standard treatment
Method: as §1, §2, §3

[5] = D10 with pargyline compared to untreated
[6] = pargyline-treated samples, p<0.05

**Q.** `C#CCN(C)Cc1ccccc1` [pargyline, N-Methyl-N-propargylbenzylamine] was tested. Which Myo7a expression [1] did it give?
**A.** significantly upregulated

**Q.** And the “proliferation of Lgr5 cells (LCP cell division)” value [2]?
**A.** 26%

**Q.** What about the “genes differentially expressed compared to the undifferentiated (D0)” value ([3]; D10+pargyline samples versus D0) of the same molecule?
**A.** ~3365 genes

**Q.** What about the genes downregulated [3, 5] of the same molecule?
**A.** 330 genes

**Q.** And the genes upregulated [3, 5]?
**A.** 144 genes

**Q.** And the “genes with altered expression” value ([3]; D10 with pargyline compared to untreated, padj<0.05, fold change >1.25)?
**A.** approximately 474 genes

**Q.** And the “gene set enrichment score, development of auditory receptors (GO:0060117)” value ([3]; GSEA after pargyline treatment, p<0.1)?
**A.** 0.62

**Q.** What about the “top 15 differentially expressed Wnt target genes: number downregulated” value [3, 6] of the same molecule?
**A.** 13 genes

**Q.** What about the “top 15 differentially expressed Wnt target genes: number upregulated” value [3, 6] of the same molecule?
**A.** 2 genes

**Q.** What about the “mRNA levels of Atoh1” value [4] of the same molecule?
**A.** no difference
